{"source": "patent US20240114903A1", "about": "“SYNERGISTIC MIXTURES COMPRISING PYRETHRUM FOR ARTHROPOD TOXICITY AND REPELLENCY” (University of Florida Research Foundation, Incorporated, priority 2021, published 2024)", "key": {"[1]": {"tested_on": "Orlando strain Aedes aegypti females", "conditions": "essential oil or PBO alone, topical", "experimental": "Plant essential oils were obtained from Berje, Inc. (Carteret, NJ, USA). […] Sucrose for sugar water was obtained from Domino (Baltimore, MD, USA).\nPupae were provided by the USDA prior to experiments.\nJ. Med. Entomol. […] Topical applications were performed by anesthetizing adult female mosquitoes on ice for 5 min, and then placing them on a cold, glass Petri dish to prevent reanimation. A Whatman No. 2 filter paper was used to prevent mosquitoes from coming in contact with excess condensation. A 0.2 μL volume of each treatment was applied to the pronotum of each mosquito using a Hamilton (Reno, NV, USA) repeating applicator with a gastight Hamilton syringe and placed in 470 mL deli paper cups. […] Ten mosquitoes were treated for each concentration representing one replicate, and at least three different cohorts of mosquitoes were used for each concentration in an effort to control for biological variability in the mosquitoes produced by the Orlando colony. A cohort was defined as a distinct rearing group (i.e., adult mosquitoes obtained from distinct batches of eggs placed in water to initiate development each week). Controls were performed using the vehicle, ethanol. Tulle fabric, fastened to the cup with a deli cup lid rim (center removed), was used to keep mosquitoes from escaping. Deli cups containing ten treated mosquitoes per concentration per replicate were placed in an incubator for the remainder of the experimental interval and kept at the same temperature and light cycle as during rearing. Knockdown, defined as the inability to fly or maintain normal standing posture, was recorded at 1 h, and mortality was recorded at 24 h. Mortality was defined as no movement, even after gently tapping the cup several times to assess response.\nVI. Potentiation and antagonism of organophosphorus and carbamate insecticides. Econ. Entomol. […] To compare effects at discrete doses to one another or between those and control, an ANOVA (α=0.05) with a Tukey's post-test was used with an α value of 0.05."}, "[2]": {"tested_on": "female Aedes aegypti mosquitoes", "assay_type": "in vivo", "conditions": "screened individually at the sublethal concentrations used in the mixtures (TCA 10, TFA 50 μg/cm^2)"}}, "note": "Structures can show the parent of a compound that is named as a salt. Where two headings read alike, the source gives them in different places.", "data": [{"compound": "CCCCOCCOCCOCc1cc2c(cc1CCC)OCO2", "note": "[PBO, Piperonyl butoxide]", "values": [{"measurement": "1 h % Knockdown ± SE, Synergist", "setting": "[1]; 2 μg/insect", "result": "6.7 ± 3.7", "unit": "%"}, {"measurement": "24 h % Mortality ± SE, Synergist", "setting": "[1]; 2 μg/insect", "result": "6.7 ± 2.4", "unit": "%"}, {"measurement": "1 h % Knockdown ± SE, Synergist", "setting": "[1]; 10 μg/insect", "result": "21.7 ± 4", "unit": "%"}, {"measurement": "24 h % Mortality ± SE, Synergist", "setting": "[1]; 10 μg/insect, listed as Piperonyl butoxide (PBO)", "result": "statistically significant"}]}, {"compound": "CC1(C)[C@H](C=C(Cl)Cl)[C@H]1C(=O)O", "note": "[TFA, (1R,3S)-3-(2,2-dichloroethenyl)-2,2-dimethylcyclopropanecarboxylic acid]", "values": [{"measurement": "toxicity by themselves", "setting": "[2]", "result": "no toxicity"}]}, {"compound": "CC(C)=CC1C(C(=O)O)C1(C)C", "note": "(stereo not drawn) [TCA, 1R-trans-chrysanthemic acid]", "values": [{"measurement": "toxicity by themselves", "setting": "[2]", "result": "no toxicity"}]}]}
